In ChEMBL document CHEMBL6121044, “Discovery of Novel Spirocyclic MAT2A Inhibitors Demonstrating High In Vivo Efficacy in MTAP-Null Xenograft Models” (J Med Chem, 2025):

Tests used:
[1] = Microsomal metabolic stability in mouse liver microsomes assessed as clearance; assay type: ADME, Microsome; conditions: read-out: CLH
[2] = test system: HCT-116; experiment: Antiproliferative activity against MTAP-knock out human HCT-116 cells assessed as maximal inhibition rate at 10 uM measured after 5 days by CTG assay relative to control; assay type: functional; conditions: time 5 day
[3] = test system: HCT-116; experiment: Anti-tumor activity against human HCT-116 MATP(-/-) cells xenografted in mouse model assessed as tumor growth inhibition at 200 mg/kg QD relative to control; assay type: functional; conditions: read-out: TGI
[4] = test system: HCT-116; experiment: Antiproliferative activity against MTAP-knock out human HCT-116 cells assessed as proliferation inhibition rate measured after 5 days by CTG assay; assay type: functional, cell-based; conditions: HCT-116, 120 h
[5] = Microsomal metabolic stability in human liver microsomes assessed as clearance; assay type: ADME, Microsome; conditions: read-out: CLH
[6] = Lipophilicity, log D of compound at pH 7.4 byHPLC method; assay type: physicochemical; conditions: buffer
[7] = molecular target: S-adenosylmethionine synthase isoform type-2 (Homo sapiens, UniProt P31153); experiment: Inhibition of MAT2A (unknown origin) assessed as release of inorganic phosphate using ATP/L-methionine pre-incubated for 30 mins followed by substrate addition measured after 2.5 hrs by colorimetric assay
Sequence of S-adenosylmethionine synthase isoform type-2 (P31153 whole entry, canonical isoform): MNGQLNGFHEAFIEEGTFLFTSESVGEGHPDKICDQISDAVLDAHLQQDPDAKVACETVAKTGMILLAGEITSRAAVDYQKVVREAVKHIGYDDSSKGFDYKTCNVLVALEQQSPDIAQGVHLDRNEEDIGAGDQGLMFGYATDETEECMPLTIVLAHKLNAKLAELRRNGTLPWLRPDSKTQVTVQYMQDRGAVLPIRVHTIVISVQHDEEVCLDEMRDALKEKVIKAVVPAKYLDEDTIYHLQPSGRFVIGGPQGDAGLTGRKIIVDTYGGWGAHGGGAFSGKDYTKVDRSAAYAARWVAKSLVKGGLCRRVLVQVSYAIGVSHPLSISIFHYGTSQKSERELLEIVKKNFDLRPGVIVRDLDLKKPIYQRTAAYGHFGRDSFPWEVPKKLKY

[8] = test system: HCT-116; experiment: Anti-tumor activity against human HCT-116 MATP(-/-) cells xenografted in mouse model assessed as tumor growth inhibition at 30 mg/kg QD relative to control; assay type: functional; conditions: read-out: TGI
[9] = Clearance in male ICR mouse at 10 mg/kg, po and 2 mg/kg, iv measured upto 24 hrs; assay type: ADME, organism-based; conditions: in vivo
[10] = Volume of distribution at steady state in male ICR mouse at 10 mg/kg, po and 2 mg/kg, iv measured upto 24 hrs; assay type: ADME, organism-based; conditions: in vivo
[11] = AUC (0 to infinity) in male ICR mouse at 10 mg/kg, po and 2 mg/kg, iv measured upto 24 hrs; assay type: ADME, organism-based; conditions: in vivo
[12] = Half life in male ICR mouse at 10 mg/kg, po and 2 mg/kg, iv measured upto 24 hrs; assay type: ADME, organism-based; conditions: in vivo

Compound | CLint scaled [1] [mL/min/kg] | Imax [2] [%] | inhibition in vivo at 200 mg/kg [3] [%] | IC50 [4] [nM] | CLint scaled [5] [mL/min/kg] | logD [6] | IC50 [7] [nM] | inhibition in vivo at 30 mg/kg [8] [%] | clearance [9] [mL/min/kg] | Vdss [10] [L/kg] | AUC(0-inf) [11] [ng·h/mL] | half-life [12] [h]
COc1ccc(-c2c(Nc3ccccn3)[nH]c3c(C4=CCCCC4)c(-c4ccccc4)nn3c2=O)cc1 | 40.3 | 100 | 52 | 492 | < 9.3 | – | – | – | – | – | – | –
C=C(c1ccc2c(c1)C1(CCc3ncccc31)C(=O)N=C2NC)C(F)(F)F (centres undefined) | – | – | – | – | – | 2.4 | 64 | – | – | – | – | –
CNC1=NC(=O)C2(CCc3ncccc32)c2cc(C3CC3)cc(F)c21 (centres undefined) | – | 78.29 | – | 240 | – | 2.21 | 13 | – | – | – | – | –
Cn1cnc2c(=O)n(-c3cccnc3C3CC3)c3cc(Cl)ccc3c21 | – | – | – | – | – | – | – | 82.9 | – | – | – | –
CNC1=NC(=O)C2(CCc3ncccc32)c2cc(C(C)(F)F)ccc21 (centres undefined) | 55 | 100 | – | 101 | < 9.3 | 1.57 | 9 | – | – | – | – | –
CNC1=NC(=O)C2(COc3ccccc32)c2nc(C(F)(F)F)ccc21 (centres undefined) | – | 51.99 | – | 5080 | – | – | 115 | – | – | – | – | –
CNC1=NC(=O)C2(CC(C)(C)c3ccccc32)c2nc(C(F)(F)F)ccc21 (centres undefined) | – | – | – | > 10000 | – | – | 78 | – | – | – | – | –
CNC1=NC(=O)C2(CCc3cc(F)ccc32)c2nc(C(F)(F)F)ccc21 (centres undefined) | 71.6 | 55.77 | – | 4710 | < 9.3 | – | 33 | – | – | – | – | –
CNC1=NC(=O)C2(OCc3ccccc32)c2nc(C(F)(F)F)ccc21 (centres undefined) | – | – | – | – | – | – | > 3000 | – | – | – | – | –
CNC1=NC(=O)C2(Cc3ccccc3C2)c2nc(C(F)(F)F)ccc21 | – | – | – | – | – | – | 55 | – | – | – | – | –
[2H]C([2H])([2H])NC1=NC(=O)[C@]2(CCc3ncccc32)c2cc(C3CC3)c(F)cc21 | 38.9 | 77 | – | 49 | < 9.3 | 2.2 | 4 | – | 11.4 | 1.02 | 12300 | 2.1
CNC1=NC(=O)C2(CCc3ncccc32)c2cc(C3CC3)c(F)cc21 (centres undefined) | 38.9 | 84.78 | – | 83 | < 9.3 | 2.24 | 4 | – | – | – | – | –
CNC1=NC(=O)C2(CCc3ncccc32)c2cc(C=C(F)F)ccc21 (centres undefined) | – | 96.49 | – | 2440 | – | 1.95 | 16 | – | – | – | – | –
CNC1=NC(=O)C2(CCc3cccnc32)c2nc(C(F)(F)F)ccc21 (centres undefined) | – | – | – | – | – | – | 591 | – | – | – | – | –
CNC1=NC(=O)C2(CCc3c(Br)cccc32)c2nc(C(F)(F)F)ccc21 (centres undefined) | – | – | – | – | – | – | 18 | – | – | – | – | –
CNC1=NC(=O)C2(CCc3ncccc32)c2cc(C3CC3)ncc21 (centres undefined) | – | 79.52 | – | 1060 | – | 1.1 | 47 | – | – | – | – | –
COC1(C(=O)N2Cc3nc(Cl)nc(N[C@H](C)c4cc(N)cc(C(F)(F)F)c4)c3C2)CCOCC1 | < 9.3 | – | – | – | < 9.3 | – | – | – | – | – | – | –
CNC1=NC(=O)C(C)(c2ccccc2)c2nc(C(F)(F)F)ccc21 (centres undefined) | – | – | – | – | – | – | 57 | – | – | – | – | –
CNC1=NC(=O)C2(CCc3ncccc32)c2cc(OC(F)F)ccc21 (centres undefined) | – | 83.08 | – | 193 | – | 1.36 | 8 | – | – | – | – | –
CNC1=NC(=O)C2(CCc3cccc(F)c32)c2nc(C(F)(F)F)ccc21 (centres undefined) | – | 71.66 | – | 225 | – | – | 24 | – | – | – | – | –
CNC1=NC(=O)C2(CCCc3ccccc32)c2nc(C(F)(F)F)ccc21 (centres undefined) | 193 | 74.25 | – | 57 | 24.1 | – | 12 | – | – | – | – | –

Compound | CLint scaled [1] [mL/min/kg] | Imax [2] [%] | inhibition in vivo at 200 mg/kg [3] [%] | IC50 [4] [nM] | CLint scaled [5] [mL/min/kg] | logD [6] | IC50 [7] [nM] | inhibition in vivo at 30 mg/kg [8] [%] | clearance [9] [mL/min/kg] | Vdss [10] [L/kg] | AUC(0-inf) [11] [ng·h/mL] | half-life [12] [h]
CNC1=NC(=O)C2(CCc3ccc(F)cc32)c2nc(C(F)(F)F)ccc21 (centres undefined) | – | 52.53 | – | 23300 | – | – | 55 | – | – | – | – | –
CNC1=NC(=O)C2(CCc3c(C#N)cccc32)c2nc(C(F)(F)F)ccc21 (centres undefined) | 48.2 | 76.16 | – | 1100 | < 9.3 | – | 18 | – | – | – | – | –
[2H]C([2H])([2H])NC1=NC(=O)[C@]2(CCc3ncccc32)c2cc(C3CC3)ccc21 | 63 | 78.6 | – | 55 | 11.2 | 1.92 | 4 | – | 13.1 | 1.26 | 22000 | 1.47
CNC1=NC(=O)C2(CCc3ccccc32)c2nc(C(F)(F)F)ccc21 (centres undefined) | 59 | 77.71 | – | 17 | < 9.3 | – | 7 | – | 29.3 | 3.665 | 6020 | 2.05
CNC1=NC(=O)C2(CCc3ncccc32)c2cc(C(F)(F)C(F)(F)F)ccc21 (centres undefined) | – | 66.34 | – | 405 | – | 2.55 | 6 | – | – | – | – | –
[2H]C([2H])([2H])NC1=NC(=O)[C@]2(CCc3ncccc32)c2cc(C(C)(F)F)c(F)cc21 | < 29.3 | 85.98 | – | 70 | < 9.3 | 1.87 | 4 | – | 11.2 | 1.15 | 14200 | 1.58
CNC1=NC(=O)C2(CCc3ncccc32)c2nc(C(F)(F)F)ccc21 (centres undefined) | 67 | 87.63 | – | 149 | < 9.3 | – | 9 | – | 9.06 | 2.42 | 18600 | 3.35
CNC1=NC(=O)C2(CCc3ncccc32)c2cc(C3CC3)ccc21 (centres undefined) | 85.7 | 97.11 | – | 66 | 12.3 | 1.92 | 6 | – | – | – | – | –
CNC1=NC(=O)C2(CCc3c(F)cccc32)c2nc(C(F)(F)F)ccc21 (centres undefined) | 118 | 86.45 | – | 105 | 13.4 | – | 11 | – | – | – | – | –
O=C1N=C(NC2CC2)c2ccc(C(F)(F)F)cc2C12CCc1ncccc12 (racemic) | – | 71.61 | – | 146 | – | 2.77 | 4 | – | – | – | – | –
[2H]C([2H])([2H])NC1=NC(=O)C2(CCc3ncccc32)c2cc(C(F)(F)F)ccc21 (racemic) | 42.5 | 92 | – | 115 | < 9.3 | 1.82 | 8 | – | 5.13 | 1.39 | 56700 | 3.64
O=C1N=C(NC2CC(F)(F)C2)c2ccc(C(F)(F)F)cc2C12CCc1ncccc12 (racemic) | – | 77.73 | – | 283 | – | 2.88 | 5 | – | – | – | – | –
COc1cc(NC2=NC(=O)C3(CCc4ncccc43)c3cc(C(F)(F)F)ccc32)ccn1 (racemic) | – | 56.22 | – | 180 | – | 3.29 | 12 | – | – | – | – | –
O=C1N=C(NCC(F)(F)F)c2ccc(C(F)(F)F)cc2C12CCc1ncccc12 (racemic) | < 29.3 | 101.9 | – | 263 | < 9.3 | 2.73 | 10 | – | – | – | – | –
O=C1N=C(NC2COC2)c2ccc(C(F)(F)F)cc2C12CCc1ncccc12 (racemic) | – | – | – | – | – | 1.57 | > 3000 | – | – | – | – | –
CN(C)C1=NC(=O)C2(CCc3ncccc32)c2cc(C(F)(F)F)ccc21 (racemic) | – | 79.25 | – | 119 | – | 2.24 | 19 | – | – | – | – | –
NC1=NC(=O)C2(CCc3ncccc32)c2cc(C(F)(F)F)ccc21 (racemic) | < 9.6 | 75.59 | – | 100 | < 9.6 | 1.76 | 4 | – | 8.48 | 1.68 | 20400 | 1.92
CNC1=NC(=O)C2(CCc3ncccc32)c2cc(C(F)(F)F)ccc21 (racemic) | 51.2 | 93.27 | – | 97 | < 9.3 | 1.83 | 11 | – | 6.77 | 2.2 | 35200 | 3.53
CNc1nc(=O)n(-c2ccccc2Cl)c2nc(C(F)(F)F)ccc12 (single isomer, unassigned; atropisomer 1) | – | – | – | – | – | – | 3 | – | – | – | – | –
CNc1nc(=O)n(-c2ccccc2Cl)c2nc(C(F)(F)F)ccc12 (single isomer, unassigned; atropisomer 2) | – | – | – | – | – | – | 86 | – | – | – | – | –
Nc1nc(=O)n(-c2ccccc2Cl)c2nc(C(F)(F)F)ccc12 (single isomer, unassigned; atropisomer A) | – | – | – | – | – | – | 3 | – | – | – | – | –
